Test results published in paper PMC11490238 (Drug Design, Development and Therapy, 2024).
Blank lines part the entries; values can stand above or below the compound they belong to.

Experiments:
[1] = victim erlotinib, cancer subjects; cited from earlier work
HLM = settings: anlotinib as substrate in HLMs
[2] = system: anlotinib metabolism in HLM; assay: in vitro; settings: human, pH 7.4
CYP1A2 [3] = target: T1, CYP1A2 (Homo sapiens, UniProt P05177); assay: biochemical
T1 sequence (P05177 1-516): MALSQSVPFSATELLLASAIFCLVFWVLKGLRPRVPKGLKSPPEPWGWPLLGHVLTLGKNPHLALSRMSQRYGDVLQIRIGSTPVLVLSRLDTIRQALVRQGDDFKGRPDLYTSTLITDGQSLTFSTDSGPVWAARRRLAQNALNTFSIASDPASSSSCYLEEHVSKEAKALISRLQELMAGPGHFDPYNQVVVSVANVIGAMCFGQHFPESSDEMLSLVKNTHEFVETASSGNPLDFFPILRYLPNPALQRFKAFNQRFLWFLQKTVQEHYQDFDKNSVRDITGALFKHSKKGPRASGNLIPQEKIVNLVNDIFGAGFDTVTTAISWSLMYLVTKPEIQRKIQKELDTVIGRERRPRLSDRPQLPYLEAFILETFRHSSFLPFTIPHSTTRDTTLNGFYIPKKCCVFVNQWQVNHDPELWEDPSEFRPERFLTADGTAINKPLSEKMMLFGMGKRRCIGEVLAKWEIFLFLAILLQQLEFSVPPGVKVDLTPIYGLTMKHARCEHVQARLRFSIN

CYP3A5 [4] = target: T2, CYP3A5 (Homo sapiens, UniProt P20815); assay: biochemical
T2 sequence (P20815 whole entry): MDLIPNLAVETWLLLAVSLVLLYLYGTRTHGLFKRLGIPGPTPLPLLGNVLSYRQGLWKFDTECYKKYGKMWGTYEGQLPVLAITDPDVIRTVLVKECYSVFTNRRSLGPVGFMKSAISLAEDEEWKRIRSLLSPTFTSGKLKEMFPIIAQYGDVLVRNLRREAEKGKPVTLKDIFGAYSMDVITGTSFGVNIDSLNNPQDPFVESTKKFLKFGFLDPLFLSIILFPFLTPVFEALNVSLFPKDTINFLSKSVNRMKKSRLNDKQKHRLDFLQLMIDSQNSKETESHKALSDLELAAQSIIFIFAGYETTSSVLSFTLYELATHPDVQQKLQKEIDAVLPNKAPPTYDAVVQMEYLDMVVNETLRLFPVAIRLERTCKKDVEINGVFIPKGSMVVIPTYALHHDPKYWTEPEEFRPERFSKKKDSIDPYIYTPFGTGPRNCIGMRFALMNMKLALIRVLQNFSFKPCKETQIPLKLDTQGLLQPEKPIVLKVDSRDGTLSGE

CYP1A2 [5] = target: T1, CYP1A2; settings: calculated from ISEF (0.69) and CLint,rhCYP
human recombinant CYP3A4 = human recombinant CYP3A4 (Homo sapiens, UniProt P08684); settings: calculated from ISEF (0.49) and CLint,rhCYP
Chain of human recombinant CYP3A4 (P08684 whole entry): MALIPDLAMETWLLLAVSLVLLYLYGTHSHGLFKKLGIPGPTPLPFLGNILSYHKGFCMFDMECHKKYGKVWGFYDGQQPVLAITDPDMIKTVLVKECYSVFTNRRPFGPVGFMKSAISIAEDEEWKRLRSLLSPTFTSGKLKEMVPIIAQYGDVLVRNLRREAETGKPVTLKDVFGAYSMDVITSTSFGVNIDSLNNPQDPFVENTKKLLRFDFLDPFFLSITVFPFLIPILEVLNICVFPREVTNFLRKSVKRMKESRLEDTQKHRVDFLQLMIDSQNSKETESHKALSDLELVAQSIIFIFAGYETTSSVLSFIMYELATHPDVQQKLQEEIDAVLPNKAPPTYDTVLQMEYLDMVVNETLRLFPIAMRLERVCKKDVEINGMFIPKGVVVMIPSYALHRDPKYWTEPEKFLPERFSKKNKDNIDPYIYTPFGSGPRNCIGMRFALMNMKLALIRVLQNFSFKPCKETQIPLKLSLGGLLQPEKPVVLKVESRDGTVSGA

CYP3A5 [6] = target: T2, CYP3A5; settings: calculated from ISEF (0.43) and CLint,rhCYP
[7] = Chinese cancer volunteers; cited from earlier work
P-gp = settings: previous studies and drug package inserts; cited from earlier work
in vitro = settings: human, microsomes, pH 7.4

SMILES: CO[C@H]1/C=C/O[C@@]2(C)Oc3c(C)c(O)c4c(O)c(c(/C=N/N5CCN(C)CC5)c(O)c4c3C2=O)NC(=O)/C(C)=C\C=C\[C@H](C)[C@H](O)[C@@H](C)[C@@H](O)[C@@H](C)[C@H](OC(C)=O)[C@@H]1C [rifampicin]
AUC0–∞ of erlotinib reduced to (fold) by the labelled perpetrator [1]: 0.33 fold | Cmax of erlotinib reduced to (fold) by the labelled perpetrator [1]: 0.71 fold

SMILES: COc1cc2c(Oc3ccc4[nH]c(C)cc4c3F)ccnc2cc1OCC1(N)CC1 [Anlotinib]
fm, share of anlotinib metabolized by CYP1A2 (CYP1A2 [5]): 35% | fm, share of anlotinib metabolized by CYP3A4 (human recombinant CYP3A4): 35% | fm, share of anlotinib metabolized by CYP3A5 (CYP3A5 [6]): 29% | CLpo [7]: 11.014 L/h | P-gp substrate characteristics (P-gp): non-substrate | microsomal CLint (in vitro): 18 µL/min/mg

SMILES: CC(=O)N1CCN(c2ccc(OCC3COC(Cn4ccnc4)(c4ccc(Cl)cc4Cl)O3)cc2)CC1 (stereo not drawn) [ketoconazole]
Inhibition mechanism (Lineweaver-Burk plots) (HLM): mixed inhibitors

The next lines start with results.

Ki [2]: 4.87 µM | Ki (CYP1A2 [3]): 4.73 µM
SMILES: C[C@H]1COc2c(N3CCN(C)CC3)c(F)cc3c(=O)c(C(=O)O)cn1c23 [levofloxacin]
Inhibition mechanism (Lineweaver-Burk plots) (HLM): mixed inhibitors

Ki [2]: 3.02 µM | Ki (CYP3A5 [4]): 6.88 µM
SMILES: CC[C@H]1OC(=O)[C@H](C)[C@@H](O[C@H]2C[C@@](C)(OC)[C@@H](O)[C@H](C)O2)[C@H](C)[C@@H](O[C@@H]2O[C@H](C)C[C@H](N(C)C)[C@H]2O)[C@](C)(OC)C[C@@H](C)C(=O)[C@H](C)[C@@H](O)[C@]1(C)O [clarithromycin]
Inhibition mechanism (Lineweaver-Burk plots) (HLM): mixed inhibitors
